Test: Human HepG2 cell viability assay in 384 well format
Assay type: toxicity, cell-based
Set-up: dose 125 nL, time 70.5 hour; cytotoxicity at 70.5 h: concentration not given beside the values
Settings: HepG2 cells, read-out: Inhibition

Structure (SMILES)	cytotoxicity at 70.5 h [%]
CCOc1ncccc1C(=O)N1CCCC1c1c(C)nn(C)c1Cl (stereo not given)	11.9
Cc1cnn(CC2CCCN2C(=O)c2ccc(F)cc2Cl)c1 (stereo not given)	0.634
Cc1cnn(CC2CN(CC(=O)N(C)Cc3ccsc3)CCO2)c1 (stereo not given)	5.76
CC(C)CCCNC(=O)Nc1ccc(C(N)=O)c(Cl)c1	-4.82
CC(C)CCCNC(=O)Nc1ccc(Cl)c(C(N)=O)c1	1.37
CS(=O)(=O)N1CCC(NC(=O)COc2cccc(Cl)c2)CC1	1.43
CCOCCCNC(=O)Nc1ccc(F)c(C(N)=O)c1	6.9
O=C(CCOc1ccccc1Cl)N1CCN(c2cnccn2)CC1	0.75
COC(=O)c1cccn1C1CCN(Cc2cccnc2)CC1	4.46
CCc1nc(CN2CCOC(Cn3nc(C)cc3C)C2)no1 (stereo not given)	38.2
Cc1ccc(C)c(S(=O)(=O)CCNC2CCc3ncnn3C2)c1 (stereo not given)	-0.666
Cc1cnn(CC2CCCN2C(=O)c2ccc(Cl)cc2F)c1 (stereo not given)	-1.79
COc1ccccc1OCC(=O)NS(=O)(=O)c1ccc(Cl)s1	-2.89
COc1ncccc1C(=O)N1CCCC1c1c(C)nn(C)c1Cl (stereo not given)	-0.671
Cc1cn2nc(N3CCCCC3Cn3cccn3)sc2n1 (stereo not given)	22.5
Cc1cc(C(=O)N2CCCC(n3cncn3)C2)on1 (stereo not given)	26.7
c1cncc(CNC2CCc3ncnn3C2)c1 (stereo not given)	34.5
c1cnn(CC2CN(CC3CCCCC3)CCO2)c1 (stereo not given)	-0.377
CC(=O)N(Cc1noc(C)n1)C1CCN(Cc2ccc(C#N)cc2)C1 (stereo not given)	30.3
Cc1ccc(CNCC2CCCN2c2cccnn2)s1 (stereo not given)	4.46
c1cnnc(N2CCCC2CNCc2cccs2)c1 (stereo not given)	-1.72
CCc1nc2n(n1)CC(NCc1cnn(Cc3ccccc3)c1)CC2 (stereo not given)	-5.29
CC(NCc1nnc2n1CCCC2)C(=O)N1CCc2sccc2C1 (stereo not given)	-2.4
CC(NC(=O)NCc1ccccc1Cl)c1ccccn1 (stereo not given)	19.4

Structure (SMILES)	cytotoxicity at 70.5 h [%]
CC(NC(=O)Cn1ccc(=O)n(C)c1=O)c1ccccc1F (stereo not given)	-5.75
O=C(NCc1ccccn1)NCc1ccc(Cl)s1	20.5
COc1c(CNCc2ccc(CS(C)(=O)=O)cc2)c(C)nn1C	26.4
COc1c(CNCc2ccc(C(=O)N(C)C(C)C)cc2)c(C)nn1C	34.2
O=C(CCN1CCOC(Cn2cccn2)C1)NC1CCCCC1 (stereo not given)	-0.965
Cc1cn2nc(N3CCCC3Cn3cccn3)sc2n1 (stereo not given)	-4.17
Cc1nccn1C1CCCN(C(=O)Cc2cn3ccccc3n2)C1 (stereo not given)	16.9
CC(C)c1cc(C(=O)N2CCCC(n3cncn3)C2)n[nH]1 (stereo not given)	6.33
Cc1nnc(CN2CCN(C(C)c3nc(C4CC4)no3)CC2)o1 (stereo not given)	-1.41
Cn1ccnc1CN1CCCC1Cn1cccn1 (stereo not given)	-1.33
CCn1ccnc1CN1CCCN(C(=O)Cc2csc(C)n2)CC1	-5.98
COc1cccc(CN2CCCCC2Cn2nc(C)nc2C)c1 (stereo not given)	-9.6
CN(C)c1ccc(C(=O)NCc2csc(Br)c2)cn1	-11
CCN(CC)CC1CCN(Cc2ccn(C)c(=O)c2)CC1	-4.81
O=C(CSCc1ccncc1)NCc1csc(Br)c1	-8.77
Cc1oc(C)c(C(=O)NCc2cccc(C(N)=O)c2)c1C	-4.54
Cc1ccc(-n2cc(C(=O)N3CCCC(n4cccn4)C3)nn2)cc1 (stereo not given)	-5.27
O=C(CN1CCc2c(ncn2C2CC2)C1)NC1CCOCC1	-10.3
Cc1nc(CN2CCN(C(C)c3nc(C4CC4)no3)CC2)no1 (stereo not given)	-4.1
CC(C)(CNC(=O)NCCc1ccn(-c2ccccc2)n1)C(N)=O	-6.77
O=C(CCCOc1cccc(F)c1)N1CCCC(n2cncn2)C1 (stereo not given)	1.02
CCn1ccnc1CN1CCCC1Cn1cc(C)cn1 (stereo not given)	4.18
O=C(CCCOc1cccc(F)c1)N1CCCC(n2cccn2)C1 (stereo not given)	-5.07
Cc1noc(C)c1CN1CCN(C(C)c2nc(C3CC3)no2)CC1 (stereo not given)	-3.54

Structure (SMILES)	cytotoxicity at 70.5 h [%]
CC(C)c1nnc(CN2CCN(C(C)c3nc(C4CC4)no3)CC2)o1 (stereo not given)	-3.84
CCn1ccnc1CN1CCCN(C(=O)Cc2ccc(C)cc2)CC1	-1.67
Cc1ccc(N2CCCC(NCc3ccc(Cl)o3)C2)nn1 (stereo not given)	-1.97
CC(c1cccc(S(N)(=O)=O)c1)N(C)CCc1ccccc1 (stereo not given)	11.5
CSc1ccc(Cl)c(C(=O)N2CCCC(CNS(C)(=O)=O)C2)c1 (stereo not given)	17.2
O=C(NCC(=O)N1CCCCC1)c1ccoc1	-7.84
CN(C)c1ncccc1CNS(=O)(=O)c1ccccc1F	-27.7
O=C(NCCn1ccnc1)N1CCN(Cc2cccs2)CC1	-17.2
Cc1ccc(C(=O)NCCNc2ncccc2C#N)c(=O)[nH]1	20.6
Cc1nn(C)c(N(C)C)c1CNC(C)c1cccc(OC(C)C)c1 (stereo not given)	-11.2
Cc1nn(C)c(N(C)C)c1CNC(C)Cc1c(F)cccc1F (stereo not given)	-16.6
CCOc1ncccc1CNC(=O)Nc1ccc(N(C)C)nc1	17.3
CN(CC1CCCCC1)C(=O)c1ccc(-n2ncc(C#N)c2N)cc1	-5.32
O=C(Cc1c[nH]c2ccccc12)N1CCC(Nc2cccnn2)CC1	-10.3
CCN(C(=O)c1ccc(-n2ncc(C#N)c2N)cc1)C1CCCC1	-12.1
CCc1nccn1C1CCCN(C(=O)c2csc(NC(C)=O)n2)C1 (stereo not given)	-16.5
Cc1ccc(-c2nnc(CNCCn3cc(C)cn3)o2)cc1	-18.3
O=C(NCCN1CCCCC1)c1ccoc1	17.6
CCCn1nc2c(cc1=O)CN(CC(=O)Nc1nnc(C)s1)CC2	-22
CCc1n[nH]c(C2CN(C(=O)c3ncoc3C(C)C)CCO2)n1 (stereo not given)	-9.85
O=C(NCCCn1ccnc1)N1CCN(c2cccs2)CC1	-8.6
COCCN1CCCN(C(=O)NC(C)Cn2ccnc2)CC1 (stereo not given)	2.76
Cc1nc(CNCC2CN(C)CCO2)cs1 (stereo not given)	-4.42
CCc1sc(-c2nnc(CNCCn3cc(C)cn3)o2)cc1C	-1.42

Structure (SMILES)	cytotoxicity at 70.5 h [%]
CCc1nc(C2CCCN2CCn2cncn2)no1 (stereo not given)	-5.31
COCCOc1cccc(C(=O)N2CCCC(n3ccnc3C)C2)c1 (stereo not given)	-2.47
Cc1nn(C)c(N(C)C)c1CNC(C)COc1cccc(F)c1 (stereo not given)	23.8
CN(Cc1cn2ccccc2c1C#N)C1CCCN(c2cccnn2)C1 (stereo not given)	-11.9
CCc1nc(C2CCCN2C(=O)CCCn2cccn2)no1 (stereo not given)	-7.2
Cc1nc(COc2ccc(CNCC3CN(C)CCO3)cc2)cs1 (stereo not given)	20.1
COCCOc1cccc(C(=O)N2CCCC(n3cccn3)C2)c1 (stereo not given)	-14.7
CN(Cc1noc(C2CC2)n1)C1CCN(Cc2nnc(C3CC3)o2)C1 (stereo not given)	-3.86
CC(=O)N(Cc1noc(C)n1)C1CCN(CCOc2ccccc2)C1 (stereo not given)	1.16
Cc1nc(CN2CCC(N(C)Cc3noc(C4CC4)n3)C2)oc1C (stereo not given)	4.91
Cc1nc(CN(C)C2CCN(Cc3ccc4ccccc4n3)C2)no1 (stereo not given)	20.5
COCCNC(=O)Nc1ccc(F)c(C(N)=O)c1	-6.9
CC(C)c1cc(NC(=O)CN2CCNC(=O)C2)on1	-5.09
CN1CCC/C1=N\S(=O)(=O)c1ccc(NC(=O)CCc2cccs2)cc1	-1.04
CC(C)C(NC(=O)Cn1ccc(=O)n(C)c1=O)c1ccc(F)cc1 (stereo not given)	-13.2
Cc1cc(N2CCC(NC(=O)C3CC3)CC2)nc(-c2ccncc2)n1	-5.8
Cc1cc(N2CCC(CC(N)=O)CC2)nc(-c2ccncc2)n1	-6.56
COc1ccc(C(C)NC(=O)Cn2ccc(=O)n(C)c2=O)cc1OC (stereo not given)	-6.92
Cc1ccc(OCC(O)CN2CCC(Cn3cccn3)CC2)cc1 (stereo not given)	-1.48
CC(C)c1cc(NC(=O)CN2CCC(N3CCNC3=O)CC2)on1	-3.58
Clc1ccc(OCCCN2CCN(c3cnccn3)CC2)cc1	-6.78
CCc1nc(C)c(C(=O)NCCN2CCN(C(C)=O)CC2)s1	-7.15
NC(=O)C1CCC(NC(=O)COc2ccc(Cl)c(Cl)c2)CC1 (stereo not given)	2.5
Cc1cnn(CC2CCCCN2C(=O)c2cc(Cl)c[nH]2)c1 (stereo not given)	7.01

Structure (SMILES)	cytotoxicity at 70.5 h [%]
COc1c(C2CCCN2C(=O)c2c[nH]c3ncccc23)c(C)nn1C (stereo not given)	-5.62
COc1ccccc1OCC(=O)NS(=O)(=O)c1ccccc1Br	0.476
CCc1nc(C)c(C(=O)NCCN2CCC(C)CC2)s1	0.72
Cc1cc(N2CCC(Cc3ccccc3)CC2)nc(-c2ccncc2)n1	-10.7
CCN(Cc1cccc2c1OCO2)C(=O)Nc1ccncc1	5.81
O=S(=O)(CCNC1CCc2ncnn2C1)c1ccccc1 (stereo not given)	-2.34
Cc1cc(C(=O)NCC(C)N2CCc3ccccc32)no1 (stereo not given)	15.4
Cc1cc(CN2CCN(C(C)c3nc(C4CC4)no3)CC2)no1 (stereo not given)	-4.52
O=C(COCC1CC1)N1CCCC(n2cccn2)C1 (stereo not given)	2.78
CC(NC(=O)N(C)Cc1ccc(Cl)s1)c1ccccn1 (stereo not given)	1.2
CNS(=O)(=O)c1cccc(CNC(=O)c2c(C)oc(C)c2C)c1	22.6
O=C(NCc1nnc2n1CCCC2)N1CCc2ccccc2C1	-2.97
O=C(CCNc1ncccn1)NCCc1ccn(-c2ccccc2)n1	22
CC(C)c1nnc(NC(=O)NCc2ccc(CO)c(F)c2)s1	-13.4
COCCNC(=O)NCCc1ccn(-c2ccccc2)n1	-10.9
COc1ccc(CN2CCCC2Cn2nc(C)nc2C)cc1F (stereo not given)	-18.3
NC(=O)c1csc(C(=O)N2CCCC(n3ccnc3)C2)c1 (stereo not given)	-8.21
Cn1ccnc1CN1CCCCC1Cn1cccn1 (stereo not given)	11
Cc1cnn(CC2CCCN2C(=O)c2ccc3cc[nH]c3c2)c1 (stereo not given)	0.784
Cc1noc(C)c1CNc1cc(N2CCCC2CO)ncn1 (stereo not given)	-5.89
O=C(CCOc1cccc(F)c1)N1CCCC(n2cncn2)C1 (stereo not given)	-6.87
c1ccc(-c2ncc(CNC3CCc4ncnn4C3)cn2)cc1 (stereo not given)	-11
CC(C)Cc1cc(C(=O)N2CCCC(n3cncn3)C2)[nH]n1 (stereo not given)	-7.4
COc1c(CNC2CCSc3ccc(F)cc32)c(C)nn1C (stereo not given)	25.9
